Legend:
NFκB = NFκB promoter activity in transfected THP-1 cells (beta-lactamase reporter); assay type: cell-based, human; conditions: for Inflammatory index: TNFα 7.5 ng/ml, 5 h
Method: The assay utilizes a genetically modified THP-1 cell line and GeneBLAzer® beta-lactamase technology (Invitrogen Corp). The human THP-1 monocyte/macrophages contain a stably-transfected beta-lactamase reporter gene under control of the NFkB response element. They respond to stimulation with TNFα, which leads to activation of the NFkB signaling pathway. Co-incubation of cells with TNFα and test material allows quantitative determination of the ability of test material to inhibit TNFα-stimulated beta-lactamase production. An inflammatory index was calculated as the ratio of beta-lactamase product to beta-lactamase substrate.
In brief, genetically modified THP-1 cells were seeded into wells of a 96-well plate (50×10^3 cells/well) in the presence of RPMI 1640 medium (70 μl). TNFα was added to each well (10 μl) to give a final concentration of 7.5 ng/ml. Dialyzed bovine serum was added (10 μl). Test compounds were dissolved in DMSO (10 μL) (5 wells). Each plate contained a no-cell control (4 wells), a no-serum control (4 wells) and two serum controls. Plates were incubated for 5 h at 37° C. to allow for NFkB-stimulated beta-lactamase production. LiveBLAzer™ FRET B/G Substrate (CCF4-AM) substrate was then added to the assay. CCF4-AM is a Förster resonance energy transfer (FRET) based substrate for beta-lactamase developed by Invitrogen Corp. Once CCFA-AM enters a cell, it is converted to negatively charged CCF4 by endogenous esterases. Excitation of this substrate at 409 nm leads to efficient FRET between the coumarin and fluorescein moieties, resulting in a green fluorescence detectable at 530 nm. The presence of beta-lactamase leads to cleavage of CCF4 and results in a loss of FRET, resulting in a robust blue fluorescent signal detectable at 460 nm. Thus, activity of beta-lactamase (a marker of NFkB-promoter activity) is measured as a product to substrate ratio (blue/green fluorescence ratio: 460 nm/530 nm).

eNOS = eNOS mRNA expression in HCAECs (real-time PCR); assay type: cell-based, human; conditions: 10 μM, 24 hr; for Average increase in the expression of eNOS: average of experiments
Method: HCAECs were grown as described above. Because cell viability was less than 100% at 30 and 100 μM, eNOS experiments were conducted at one concentration (10 μM). After incubation, total RNA was extracted using TRI reagent (Sigma, St Louis, Mo., USA), following the manufacturer's protocol. RNA was quantitated and normalized to 100 ng/μl using the SYBR Green II assay (Molecular Probes, Eugene, Oreg., USA) before being reverse transcribed using iScript (Bio-Rad, Hercules, Calif., USA). eNOS (sense 5′-CCATCTACAGCTTTCCGGCGC-3′ and antisense 5′-CTCTGGGGTGGCCTTCAGCA-3′) and 18S (sense 5′-CGGCTACCACATCCAAGGAA-3′ and antisense 5′-GCT GGA ATT ACC GCG GCT-3′) mRNA levels were determined by real-time PCR using iQ SYBR Green Supermix (Bio-Rad) in an iCycler iQ RealTime thermocyler detection system (Bio-Rad Laboratories). The cycling parameters were 95° C. for 30 seconds, 62° C. for 30 seconds, and 72° C. for 30 seconds for 40 cycles, and real-time data was collected at each cycle. There were six replicates.

AA-induced ear swelling = assay: Murine ear inflammation assay, arachidonic acid (AA); assay type: in vivo, mouse; conditions: 25 mg/kg i/p; for Change in ear thickness (mean ± SD, ×0.01 mm): 1 hr post-AA
Method: Groups of 5-6 female BALB/c mice (ARC, WA, Australia), weighing 15-21 g were injected intraperitoneally (i/p) with selected compounds of the formula (I) at 25 mg/kg delivered in polyethylene glycol (PEG) 400: phosphate buffered saline (PBS) 1:1 or ethanol: propanediol:PBS 4:9:7 either 30 min prior to or immediately before the inflammogen was applied to the ears. Mice were anaesthetised using isoflurane and baseline thickness of both ears was measured using a spring micrometer. Each mouse received a total of […] of either AA in ethanol (50 mg/ml or 200 mg/ml) or PMA in either ethanol or acetone (0.2 mg/ml) applied to the inner and outer surfaces of each pinna (i.e. 0.5 mg or 2 mg AA or 2 μg PMA per ear). Mice were anaesthetised again to re-measure the ears at 1 hr post-AA application and 5 hr after PMA. The difference in ear swelling pre- and post-application of inflammogen for each ear was calculated, and the average for the two ears of each mouse taken. The difference in mean swelling of each test group compared to the group given vehicle alone was calculated using a general ANOVA using Dunnett's Multiple Comparison test when multiple compounds were tested in the one experiment or a two-tailed unpaired t-test when only one compound was tested (Prism 4, Graphpad Software).

[1] = Free radical scavenging (DPPH); assay type: biochemical; conditions: DPPH 0.1 mM, 20 minutes, 517 nm; read-out: Free radical scavenging ability EC50
Method: The antioxidant (free radical trapping) activity of test compounds was assessed using the stable free radical compound 2,2-diphenyl-1-picrylhydrazyl (DPPH). A stock solution of DPPH was prepared at a concentration of 0.1 mM in ethanol and mixed for 10 minutes prior to use. Compound (1) was reacted with DPPH for 20 minutes, after which time the absorbance at 517 nm was determined. The change in absorbance at 517 nm was compared to a reagent blank (DPPH with ethanol alone). The IC50 value was estimated as the concentration of the test compound that caused a 0.6 change in absorbance (with 1.2 absorbance units representing total scavenging of the DPPH radical).

PGE2 = PGE2 synthesis in RAW 264.7 (ELISA); assay type: cell-based, mouse; conditions: LPS 50 ng/ml, 16 hrs
Method: The mouse macrophage cell line RAW 264.7 was cultured in DMEM supplemented with foetal calf serum (FCS), 2 mM glutamine and 50 U/ml penicillin/streptomycin. Cells were treated with either test compounds (in 0.025% DMSO) or vehicle alone, and added one hour before 50 ng/ml LPS. After incubation for 16 hrs, culture media was collected for PGE2 or TXB2 measurement by ELISA (Cayman Chemical), and TNFα measurement using an ELISA (Becton Dickinson).

CN(C)Cc1cc2c(cc1O)OCC(c1ccc(O)cc1)=C2 [Compound (1)]
Inflammatory index (NFκB; 10 μM, vehicle 8.92 ± 0.22): 9.12 ± 0.26 | Inflammatory index (NFκB; 30 μM, vehicle 11.56 ± 0.49): 10.05 ± 0.36 | Inflammatory index (NFκB; 100 μM, vehicle 9.48 ± 0.14): 2.75 ± 0.11 | Effect on promoter activity of NFκB (in words) (NFκB; THP-1 cells, TNFα-stimulated): significantly reduced the promoter activity of NFκB at 10 μM and 100 μM | Average increase in the expression of eNOS (eNOS): 45% | Increase in expression of eNOS mRNA relative to control cells (eNOS; EXPT 1): 52 ± 25% (0.0001) | Increase in expression of eNOS mRNA relative to control cells (eNOS; EXPT 2): 53 ± 49 (0.009) | Increase in expression of eNOS mRNA relative to control cells (eNOS; EXPT 3): 30 ± 30 (0.014) | % Change compared with vehicle (AA-induced ear swelling): −7.0% | Change in ear thickness (mean ± SD, ×0.01 mm) (AA-induced ear swelling): 24.1 ± 0.1 ×0.01 mm | EC50 [1]: 18.8 µM | PGE2 (PGE2; 1 μM): 2601.37 ± 153.53 pg/mL | PGE2 (PGE2; 10 μM): 847.96 ± 144.83 pg/mL

O=C(O)C1CCCN1Cc1cc2c(cc1O)OCC(c1ccc(O)cc1)=C2 (stereo not drawn) [Compound (3)]
Inflammatory index (NFκB; 10 μM, vehicle 8.92 ± 0.22): 8.88 ± 0.05 | Inflammatory index (NFκB; 30 μM, vehicle 11.56 ± 0.49): 11.45 ± 0.86 | Inflammatory index (NFκB; 100 μM, vehicle 9.48 ± 0.14): 8.59 ± 0.24 | Average increase in the expression of eNOS (eNOS): 325% | Increase in expression of eNOS mRNA relative to control cells (eNOS; EXPT 1): 372 ± 138% (0.00001) | Increase in expression of eNOS mRNA relative to control cells (eNOS; EXPT 2): 277 ± 212 (0.002) | % Change compared with vehicle (AA-induced ear swelling): −5.9% | Change in ear thickness (mean ± SD, ×0.01 mm) (AA-induced ear swelling): 22.2 ± 1.9 ×0.01 mm | EC50 [1]: 13.6 µM | PGE2 (PGE2; 1 μM): 2890.02 ± 320.91 pg/mL | PGE2 (PGE2; 10 μM): 2031.43 ± 261.59 pg/mL
